Measured values: paper PMC12006171, “Marsupial cathelicidins: characterization, antimicrobial activity and evolution in this unique mammalian lineage” (Frontiers in Immunology, 2025)
Where two headings read alike, the source gives them in different places. Where a SMILES comes first, the peptide text is derived from it.

What was measured:
[1] = tested on: six bacteria (S. aureus, E. coli, P. aeruginosa; ATCC and clinical isolate); parameters: method as in 4 sources, ref Peel et al 2016 ||| ref Peel et al 2021 ||| ref Wang et al 2011 ||| ref Peel et al 2017; conditions: mature peptide; Y/N summary from earlier study; ref Peel et al 2021; cited from earlier work
[2] = tested on: three fungi (Candida krusei, Candida parapsilosis, Candida albicans); parameters: method as in 4 sources, ref Peel et al 2016 ||| ref Peel et al 2021 ||| ref Wang et al 2011 ||| ref Peel et al 2017; conditions: mature peptide; Y/N summary from earlier study; ref Peel et al 2021; cited from earlier work
Chlamydia = conditions: in vitro; cited from earlier work
Source text: Many marsupial and monotreme cathelicidins were closely related to the classic cathelicidins found in eutherians. These cathelicidins sit within clade II in the phylogenetic tree, sister to eutherians but were not orthologous ( Figure 3 ). Classic marsupial cathelicidins were encoded in cluster A in the genome of all marsupials and monotremes studied, syntenic to the single cathelicidin gene/cluster in eutherians ( Figure 2 ). Many of these were antimicrobial and bactericidal, with MICs equal to or less than eutherian peptides such as cow BMAP-27 and -28 ([87]) and human LL-37, including again ...

[3] = tested on: bacterial and fungal infections in chemotherapy patients; conditions: human, in vivo; cited from earlier work
[4] = in vivo; cited from earlier work
[5] = tested on: six bacteria (S. aureus, E. coli, P. aeruginosa; ATCC and clinical isolate); type: cell-based; conditions: synthesized mature peptide
Summary of the method: (§1)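 Broth microdilution following CLSI M07-A/M26A, using peptides at 64–0.125 μg/mL final in MHB, with or without 10% lysed horse blood and with or without Ca/Mg cations (MH II B). Inoculum 5 x 10^5 CFU/mL, incubated 20–24 h at 35 °C; MIC is lowest concentration preventing visible growth, MBC by colony counts versus starting inoculum.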

[6] = tested on: three fungi (Candida krusei, Candida parapsilosis, Candida albicans); assay: Antifungal screening, summary over the panel of fungi (broth microdilution); type: cell-based; conditions: synthesized mature peptide
Summary of the method: (§2)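 Broth microdilution per CLSI M07-A/M26A; peptides in DMSO, final 64-0.125 μg/mL, inoculum 5 x 10^5 CFU/mL. Bacteria in MHB ± 10% lysed horse blood ± Ca/Mg cations, yeasts in RPMI-1640 MOPS; 35°C for 20–24 h. MIC is lowest concentration without visible growth.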

[7] = tested on: panel of 11 bacteria and three fungi; assay: Antimicrobial screening phases I and II, summary over all strains; type: cell-based; conditions: active = MIC ≤64µg/mL against the strains tested
Procedure: Antimicrobial testing of 78 cathelicidin MPs was performed in two phases as outlined in Figure 1 . In phase I, 40 peptides (27 extant and 13 ancestral) were selected for testing based on rank (outlined above) and similarity to published marsupial cathelicidins with known antimicrobial activity ([33], [41]–[43]). These peptides were tested against nine bacteria (Staphylococcus aureus ATCC 29213 and clinical isolate, Escherichia coli ATCC 25922 and clinical isolate, Pseudomonas aeruginosa ATCC 27853 and clinical isolate, Streptococcus agalactiae ATCC 12386 and clinical isolate, Streptococcus pneumoniae ATCC 49619) and three fungi (Candida krusei ATCC 6258, Candida parapsilosis ATCC 22019, and Candida albicans clinical isolate). Details regarding these strains are available in Supplementary Table 4 . The antimicrobial activity of cathelicidins was determined as the minimum inhibitory concentration (MIC), which was the lowest concentration of cathelicidin that prevented visible bacterial or fungal growth, relative to the negative control. […]
Antimicrobial activity was determined using a broth microdilution susceptibility assay in 96 well polypropylene plates according to Clinical Laboratory Standards Institute guidelines M07-A and M26A as described previously ([33], [42], [43]). […]

[8] = tested on: Escherichia coli ATCC 25922; assay: microbe, parasite or virus in culture; type: cell-based
Summary of the method: as §1

[9] = tested on: Escherichia coli clinical isolate - animal; assay: microbe, parasite or virus in culture; type: cell-based
Summary of the method: as §1

[10] = tested on: Pseudomonas aeruginosa ATCC 27853; assay: microbe, parasite or virus in culture; type: cell-based; conditions: ATCC 27853; read-out: MIC P. aeruginosa ATCC
Summary of the method: as §1

[11] = tested on: Pseudomonas aeruginosa clinical isolate - animal; assay: microbe, parasite or virus in culture; type: cell-based; conditions: clinical isolate - animal; read-out: MIC P. aeruginosa
Summary of the method: as §1

[12] = tested on: Staphylococcus aureus ATCC 29213; assay: microbe, parasite or virus in culture; type: cell-based; conditions: ATCC 29213; read-out: MIC S. aureus ATCC
Summary of the method: as §1

[13] = tested on: Staphylococcus aureus clinical isolate - animal; assay: microbe, parasite or virus in culture; type: cell-based; conditions: clinical isolate - animal; read-out: MIC S. aureus
Summary of the method: as §1

[14] = tested on: Streptococcus agalactiae ATCC 12386; assay: microbe, parasite or virus in culture; type: cell-based; conditions: ATCC 12386; read-out: MIC S. agalactiae ATCC
Summary of the method: as §2

[15] = tested on: Streptococcus agalactiae Clinical isolate - animal; assay: microbe, parasite or virus in culture; type: cell-based; conditions: clinical isolate - animal; read-out: MIC S. agalactiae
Summary of the method: as §2

[16] = tested on: Streptococcus pneumoniae ATCC 49619; assay: microbe, parasite or virus in culture; type: cell-based; conditions: ATCC 49619; read-out: MIC S. pneumoniae ATCC
Summary of the method: as §2

For “KRGGIWKLIRPLGRGAGRILRHFHIDFCGNC [PhciCath5, koala cathelicidin, reference compound]”, the “Antibacterial (MIC <64ug/mL)” value [1] is listed as “Y (Peel et al 2021) (Antibacterial (MIC <64ug/mL))”, the “Antifungal (MIC <64ug/mL)” value [2] is listed as “Y (Peel et al 2021) (Antifungal (MIC <64ug/mL))” and the “Killing of Chlamydia” value (Chlamydia) is listed as “killed Chlamydia in vitro”.

In the case of iseganan, the “Bacterial and fungal infections in oral mucositis patients” value [3] is given as “significantly reducing bacterial and fungal infections” and the “Clinical outcomes in ventilator-associated pneumonia” value [4] is given as “no difference was observed between treated or placebo groups”.

In the case of “RFKRSLSDGVIDTSSLPPRIRDIYLQAKYDIISRILRN [MAP1, marsupial ancestral peptide 1, predicted ancestral cathelicidin of the NGP clade]”, the “Antibacterial (MIC <64ug/mL)” value ([5]; antimicrobial screening Phase I, Y/N summary over bacteria tested, broth microdilution) is reported as “N (Antibacterial (MIC <64ug/mL))”, the “Antifungal (MIC <64ug/mL)” value ([6]; antimicrobial screening Phase I, Y/N summary over fungi tested, broth microdilution) is reported as “N (Antifungal (MIC <64ug/mL))” and the “Antimicrobial activity in the assays” value [7] is reported as “none displayed antimicrobial activity”.

For `CC[C@H](C)[C@H](NC(=O)[C@H](CCCNC(=N)N)NC(=O)[C@H](CCCNC(=N)N)NC(=O)[C@@H]1CCCN1C(=O)[C@H](CC(N)=O)NC(=O)[C@H](CS)NC(=O)[C@H](CCCCN)NC(=O)[C@H](CCCNC(=N)N)NC(=O)[C@@H](NC(=O)[C@H](CC(C)C)NC(=O)[C@H](CC(C)C)NC(=O)[C@H](CS)NC(=O)[C@H](CCCNC(=N)N)NC(=O)[C@H](CCCCN)NC(=O)[C@H](CCCNC(=N)N)NC(=O)[C@H](CCCCN)NC(=O)[C@H](Cc1ccccc1)NC(=O)[C@H](CCCNC(=N)N)NC(=O)[C@H](CC(C)C)NC(=O)[C@@H]1CCCN1C(=O)[C@H](CCC(=O)O)NC(=O)[C@@H]1CCCN1)[C@@H](C)O)C(=O)N[C@H](C(=O)N[C@@H](Cc1ccccc1)C(=O)N[C@@H](CO)C(=O)N[C@@H](CC(C)C)C(=O)N[C@@H](CC(C)C)C(=O)N[C@@H](CCCCN)C(=O)NCC(=O)N[C@@H](CCCCN)C(=O)O)[C@@H](C)O` [TrvuCath2] (H-PEPLRFKRKRCLLTRKCNPRRITFSLLKGK-OH; N-terminus and C-terminus assumed), the “MBC E. coli ATCC” value ([8]; ATCC 25922) was 17.5 (17.5)^17.5 µM, the “MIC E. coli ATCC” value ([8]; ATCC 25922) was 17.5 (17.5)^17.5 µM and the “MIC in the presence of cations E. coli ATCC” value ([8]; ATCC 25922) was 17.5 (17.5)^17.5 µM. The “MIC E. coli ATCC” value ([8]; MHB without cations, 5 x 10^5 CFU/mL, 35°C 20–24 hours, duplicate) was 64 (64)^64 µg/mL, the “MIC in the presence of cations E. coli ATCC” value ([8]; superscript value, cation-adjusted Mueller Hinton broth) was 64 (64)^64 µg/mL and the “MBC E. coli ATCC” value ([8]; value in brackets, 99.9% reduction in CFU/mL) was 64 (64)^64 µg/mL. The “MBC E. coli” value ([9]; clinical isolate - animal) was 17.5 (17.5)^17.5 µM, the “MIC E. coli” value ([9]; clinical isolate - animal) was 17.5 (17.5)^17.5 µM and the “MIC in the presence of cations E. coli” value ([9]; clinical isolate - animal) was 17.5 (17.5)^17.5 µM. For the same compound, the “MIC E. coli” value ([9]; clinical isolate, MHB without cations, 5 x 10^5 CFU/mL, 35°C 20–24 hours, duplicate) was 64 (64)^64 µg/mL, the “MIC in the presence of cations E. coli” value ([9]; clinical isolate, superscript value, cation-adjusted Mueller Hinton broth) was 64 (64)^64 µg/mL and the “MBC E. coli” value ([9]; clinical isolate, value in brackets, 99.9% reduction in CFU/mL) was 64 (64)^64 µg/mL. For the same compound, the MIC [10] was greater than 17.5 µM, the MIC [11] was greater than 17.5 µM and the MIC [12] was greater than 17.5 µM. For the same compound, the MIC [13] was greater than 17.5 µM, the MIC [14] was greater than 17.5 µM and the MIC [15] was greater than 17.5 µM. For the same compound, the MIC [16] was greater than 17.5 µM, the “Antibacterial (MIC <64ug/mL)” value ([5]; broth microdilution screening, phase I or II, Y/N summary over the bacteria tested) was “Y (Antibacterial (MIC <64ug/mL))” and the “Antifungal (MIC <64ug/mL)” value ([6]; broth microdilution screening, phase I, Y/N summary over the fungi tested) was “N (Antifungal (MIC <64ug/mL))”. For the same compound, the “Antimicrobial activity in the assays” value [7] was “displayed activity”.
